The values below come from US7994202B2, “Bicyclic nitrogen-containing heterocyclic compounds” (Asahi Kasei Pharma Corporation, priority 2008, dated 2011).

One assay concerns female SD rat. The experiment in a line: Micturition interval prolongation in an anesthetized rat - II (0.2% acetic acid infusion to bladder). Particulars: urethane-anesthetized female SD rat, 0.2% acetic acid bladder infusion, administered to the left femoral vein. Type of assay: in vivo. The procedure: Activity of prolonging micturition interval in an anesthetized rat was determined with reference to the method established by Maggi, et al. (Eur. J. Pharmacol. 145, p. 105-112 (1988)). Specifically, a female SD rat was anesthetized with urethane and fixed in a supine position, and a catheter was inserted through an external urethral opening. Using a three-way stopcock, it was connected to a pressure transducer and a syringe pump. While infusing physiological saline including 0.2% acetic acid to the bladder at constant rate, cystometrogram was recorded. After confirming stabilized micturition interval, micturition threshold pressure and maximal voiding pressure, a solvent or the compound to be tested was administered to the left femoral vein and an activity of prolonging micturition interval was determined as an efficacy of the drug compound. Each group included five animals.

The next assay deals with SD rats. Description: Action of extending interval of micturition in rat in wakefulness II (0.3% acetic acid-induced cystitis). Type of assay: in vivo. To be noted: male SD rats in wakefulness, 0.3% acetic acid cystitis, intravenous. From the text:
SD rats (Charles River Laboratories Japan, Inc., male) were employed as experimental animals. Each rat was put under anesthesia by inhalation of 2% isoflurane (laughing gas:oxygen=7:3), and then was fixed in the supine position. Anesthesia was maintained by the inhalation of 2% isoflurane. The abdominal part was incised along the midline, and the urinary bladder was exposed from the intraperitoneal cavity. The vertex vesicae part was subjected to a small incision, and a polyethylene tube (PE-50: Becton Dickinson and Company) was inserted into the bladder and fixed. […] Thereafter, while physiological saline warmed to 37° C. was injected to the other end of the tube inserted into the bladder through one branch of a three-way stopcock at a rate of 3.0 mL/hr, the internal pressure of the bladder was continuously recorded from another branch using a pressure amplifier through a pressure transducer. The excreted urine was cumulatively accumulated in a vessel on a digital balance, and the weight change was simultaneously measured. […] The value obtained before the administration was taken from an average value of the values measured for 30 minutes before the administration, and the value obtained after the administration was taken from an average value of the values measured for 60 minutes immediately after the administration. […]

In turn, `O=C(O)c1csc(-n2nc(-c3ccccc3)c3ccccc32)n1` [Exp.2, 2-(3-Phenyl-1H-indazol-1-yl)thiazole-4-carboxylic acid] gave a Voiding interval-extending action in the assay with female SD rat of 30.0%.
Consider `O=C(O)c1csc(-n2nc(-c3ccccc3)c3ccc(C(F)(F)F)cc32)n1` [Exp.77], for which the amount of micturition entry with SD rats is “increase in the amount of micturition”. Moreover, the micturition interval extension in the assay on SD rats (60 minutes after administration) is recorded as not below 30%.
